One test deals with Bel-7402. The test is described as follows: Cytotoxicity against human Bel7402 cells at 10 uM after 96 hrs by MTT assay. Type of test: functional, cell-based.
The next test relates to A549. The test is described as follows: Cytotoxicity against human A549 cells at 10 uM after 96 hrs by MTT assay. The format is functional, cell-based. Background: Formazan colour is commonly taken as a measure of viable cells.
The subject of test [1] is Human immunodeficiency virus 1. The test is described as follows: Antiviral activity against HIV1 infected in human 293T cells expressing VSV-G assessed as inhibition of viral p24 production at 10 uM after 48 hrs by ELISA. Type of test: functional, organism-based.
The subject of a further test is Influenza A virus H3N2. The test is described as follows: microbe, parasite or virus in culture. The following applies: Hanfang/359/95.
Test [2] in a line: Antiinflammatory activity in rat polymorphonuclear leukocytes assessed as inhibition of PAF-induced release of glucuronidase at 10 uM. The format is functional.
The next test deals with Coxsackievirus B3. The test is described as follows: Antiviral activity against Coxsackie virus B3 assessed as inhibition of viral replication. The format is functional, organism-based. The following applies: Enterovirus B.
For the next test, the system named is MCF7. The test is described as follows: Cytotoxicity against human MCF7 cells at 10 uM after 96 hrs by MTT assay. Type of test: functional, cell-based.
A further test deals with HCT-8. In words: Cytotoxicity against human HCT8 cells at 10 uM after 96 hrs by MTT assay. The format is functional, cell-based.
The next test deals with KETR3. In words: Cytotoxicity against human Ketr3 cells at 10 uM after 96 hrs by MTT assay. The format is functional, cell-based.
For the next test, the system named is BGC-823. In words: Cytotoxicity against human BGC823 cells at 10 uM after 96 hrs by MTT assay. The format is functional, cell-based.

Structures are written as SMILES. The source made the active and inactive calls. No cut-off for these calls is given here. A value given as a limit tells only on which side of the number the result lay.

For orientation: inhibition means the drop in the measured response relative to a control, in per cent. One may read the IC50 as the concentration at which inhibition is half-maximal. `C=C[C@H]1[C@H](O[C@@H]2O[C@H](CO)[C@@H](O)[C@H](O)[C@H]2O)OC=C(C(=O)O)[C@H]1/C=C/c1ccc[n+]([C@H](Cc2ccccc2)C(=O)[O-])c1`: the outcome with Bel-7402, in the test with A549, with MCF7, in the test on HCT-8, in the test on KETR3 and in the test with BGC-823 was inactive. Also, the inhibition entry in test [1] was “inactive”. The results for the half-inhibitory concentration (IC50) in the test with Influenza A virus H3N2 and with Coxsackievirus B3 were 6.8 µM and 12.3 µM, respectively. For the same molecule, in test [2], the inhibition at 10 µM stood at 53.8%.
As to `Cc1cc(CCCOc2c(C)cc(-c3noc(C(F)(F)F)n3)cc2C)on1` [PLECONARIL], the IC50 in the test with Coxsackievirus B3 came out at 0.3 µM.
For the molecule `C=C[C@H]1[C@H](O[C@@H]2O[C@H](CO)[C@@H](O)[C@H](O)[C@H]2O)OC=C(C(=O)O)[C@H]1/C=C/c1cc(C(=O)O)c[n+]([C@H](Cc2ccccc2)C(=O)[O-])c1`, the outcome with Bel-7402, in the test with A549, in the test with MCF7, with HCT-8, in the test with KETR3 and with BGC-823 was inactive. Besides, in [1], the inhibition entry is “inactive”. Further, the IC50 with Influenza A virus H3N2 was 8.2 µM. In addition, the inhibition at 10 µM in test [2] was less than 30%.
`COC[C@H]1O[C@@H](n2cnc3c(N)ncnc32)[C@H](O)[C@@H]1O`: the result in the test with Bel-7402, in the test on A549, with MCF7, in the test on HCT-8, in the test on KETR3 and in the test with BGC-823 was inactive. In test [1], the inhibition result was “inactive”. The molecule also gave a half-inhibitory concentration (IC50) in the test on Influenza A virus H3N2 of 3.4 µM. In [2], the inhibition at 10 µM was less than 30%.

For the origin of these results see ChEMBL document CHEMBL3091360, “Homosecoiridoid alkaloids with amino acid units from the flower buds of Lonicera japonica” (J Nat Prod, 2013).
